Laboratory results taken from patent US11351148B1, “Pharmaceutical composition Mix A to treat health conditions associated with elevated glucose levels” (priority 2021, dated 2022).

Tested on: skeletal muscle cells
Test: In vitro uptake of 2-DG (glucose derivative) in skeletal muscle cells
Format: cell-based, rat
Procedure: The assay was performed according to manufactures' protocol. Briefly, […] L6 cell line cells were seeded and grown to confluency in white 96 well plates in culture medium containing 10% FBS (serum). After treating with various nutrients with or without insulin cells were starved by incubating in DMEM without glucose and serum. Samples were processed using Glucose Uptake Assay kit according to manufacturer's protocol that uses the glucose analog 2-deoxyglucose (2-DG) to detect and quantify glycose uptake in cells. Luminescence was measured by a Tecan luminometer. 4 repetitions were performed for each treatment when testing individual components and 3 repetitions when testing mixes.

| Compound | glucose uptake by the cells, insulin alone (FIG. 8, insulin alone at different concentrations) | stimulating effect on glucose uptake by individual compounds compared to controls (FIG. 6, 0.0001 ug/ml, 24 h at 37° C.) |
| --- | --- | --- |
| Insulin: human insulin obtained from Sigma | concentration dependent increase | – |
| [Cr] [chromium] | – | highest stimulating effect |
